Reference: article PMC8698657, “Absorption and Transport Characteristics and Mechanisms of Carnosic Acid” (Biology, 2021)
Read-outs that look alike come from different tables or passages of the source.

Test: Trans-enterocyte transport of CA in Caco-2 cell monolayer
Type: in vitro ADME, human
Conditions: human
Method: Caco-2 were cultured in EMEM complete medium containing 10% FBS, 1% non-essential amino acids, and 1% penicillin-streptomycin double antibody, and the culture conditions were 37 °C, 5% CO2, in a constant temperature incubator [16]. We first established non-toxic dose ranges of CA in Caco-2 cells using MTT assay. Dimethylsulfoxide (DMSO) was used as the vehicle to deliver CA to the cells. The final concentration of DMSO in all experiments was 0.1% (v/v) in cell culture media. Caco-2 cells were seeded in a 96-well plate at a cell density of 5 × 10^4 cells/mL per well, and cultured under 5% CO2 and 37 °C for 24 h. A quantity of 200 μL of medium was added to each well to obtain a series of CA solutions (concentrations of 25, 50, 75, and 100 μmoL). After 48 h of treatment, Caco-2 cells were subjected to the MTT assay as described previously. For the transport study, Caco-2 cells were seeded on the apical compartment (AP) of 12-well Transwell plates at a density of 2 × 10^5 cells/mL. The complete culture medium was added into basolateral (BL) and AP compartments. The basolateral medium was replaced every other day.
CA was dissolved in HBSS solution at 50, 75, and 100 μM. The HBSS solution containing CA combined with 0.5% Tween 80, 5 mmol/L EDTA or 5% PEG 400 was prepared. The cumulative migration (Qr), apparent permeability coefficient (Papp), and the Papp value of bi-direction transport of CA were calculated according to formulas.
The 0.5 mL […] containing different concentrations of CA was added to the AP side of the 12-well Transwell plate, and 1.5 mL HBSS solution was added to the BL side. At 0, 0.5, 1, 1.5, 2, 2.5, and 3 h, 0.2 mL medium was taken from the BL side and stored at −80 °C. The TEER value of each Transwell chamber was measured.
The cryopreserved Transwell samples were transferred to a 15 mL centrifuge tube, and any remaining liquid was fully washed using 1 mL of 50% methanol solution which was also transferred to the 15 mL centrifuge tube. The mixture was vortexed for 1 min, and 6 mL of ethyl acetate solution was added to the tube and vortexed for another 2 min. The mixture was centrifuged at 6000 rpm/min at 4 °C for 10 min. The supernatant was dried under vacuum, dissolved in 5% phosphoric acid methanol solution, and filtered through a 0.22 μm microporous membrane. The concentration of CA was determined by HPLC as described above.

[1] = Caco-2, CA 50 μM, Average of 0.5-3.0 h

CC(C)c1cc2c(c(O)c1O)[C@@]1(C(=O)O)CCCC(C)(C)[C@@H]1CC2 [CA, Carnosic acid]
Papp B→A at 0.5 h, 50 μM (Caco-2, CA 50 μM, 0.5 h): 0.12 ± 0.1 ×10⁻⁶ cm/s
efflux ratio at 0.5 h, 50 μM (Caco-2, CA 50 μM, 0.5 h): 0.42
Papp A→B at 0.5 h, 50 μM (Caco-2, CA 50 μM, 0.5 h, CA alone, read-out: Papp AP to BL): 0.28 ± 0.07 ×10⁻⁶ cm/s
Papp A→B at 0.5 h, 50 μM (Caco-2, CA 50 μM, 0.5 h, read-out: Papp AP-BL): 0.28 ± 0.07 ×10⁻⁶ cm/s
Papp B→A at 1 h, 50 μM (Caco-2, CA 50 μM, 1.0 h): 0.21 ± 0.09 ×10⁻⁶ cm/s
efflux ratio at 1 h, 50 μM (Caco-2, CA 50 μM, 1.0 h): 0.58
Papp A→B at 1 h, 50 μM (Caco-2, CA 50 μM, 1.0 h, CA alone, read-out: Papp AP to BL): 0.36 ± 0.01 ×10⁻⁶ cm/s
Papp A→B at 1 h, 50 μM (Caco-2, CA 50 μM, 1.0 h, read-out: Papp AP-BL): 0.36 ± 0.01 ×10⁻⁶ cm/s
Papp B→A at 1.5 h, 50 μM (Caco-2, CA 50 μM, 1.5 h): 0.36 ± 0.06 ×10⁻⁶ cm/s
efflux ratio at 1.5 h, 50 μM (Caco-2, CA 50 μM, 1.5 h): 0.52
Papp A→B at 1.5 h, 50 μM (Caco-2, CA 50 μM, 1.5 h, CA alone, read-out: Papp AP to BL): 0.69 ± 0.09 ×10⁻⁶ cm/s
Papp A→B at 1.5 h, 50 μM (Caco-2, CA 50 μM, 1.5 h, read-out: Papp AP-BL): 0.69 ± 0.09 ×10⁻⁶ cm/s
Papp B→A at 2 h, 50 μM (Caco-2, CA 50 μM, 2.0 h): 0.49 ± 0.07 ×10⁻⁶ cm/s
efflux ratio at 2 h, 50 μM (Caco-2, CA 50 μM, 2.0 h): 0.44
Papp A→B at 2 h, 50 μM (Caco-2, CA 50 μM, 2.0 h, CA alone, read-out: Papp AP to BL): 1.11 ± 0.04 ×10⁻⁶ cm/s
Papp A→B at 2 h, 50 μM (Caco-2, CA 50 μM, 2.0 h, read-out: Papp AP-BL): 1.11 ± 0.04 ×10⁻⁶ cm/s
Papp B→A at 2.5 h, 50 μM (Caco-2, CA 50 μM, 2.5 h): 0.56 ± 0.05 ×10⁻⁶ cm/s
efflux ratio at 2.5 h, 50 μM (Caco-2, CA 50 μM, 2.5 h): 0.98
Papp A→B at 2.5 h, 50 μM (Caco-2, CA 50 μM, 2.5 h, CA alone, read-out: Papp AP to BL): 0.57 ± 0.03 ×10⁻⁶ cm/s
Papp A→B at 2.5 h, 50 μM (Caco-2, CA 50 μM, 2.5 h, read-out: Papp AP-BL): 0.57 ± 0.03 ×10⁻⁶ cm/s
Papp B→A at 3 h, 50 μM (Caco-2, CA 50 μM, 3.0 h): 0.29 ± 0.03 ×10⁻⁶ cm/s
efflux ratio at 3 h, 50 μM (Caco-2, CA 50 μM, 3.0 h): 1.32
Papp A→B at 3 h, 50 μM (Caco-2, CA 50 μM, 3.0 h, CA alone, read-out: Papp AP to BL): 0.22 ± 0.02 ×10⁻⁶ cm/s
Papp A→B at 3 h, 50 μM (Caco-2, CA 50 μM, 3.0 h, read-out: Papp AP-BL): 0.22 ± 0.02 ×10⁻⁶ cm/s
Papp B→A at 50 μM [1]: 0.33 ± 0.03 ×10⁻⁶ cm/s
efflux ratio at 50 μM [1]: 0.62
Papp A→B at 50 μM (Caco-2, CA 50 μM, Average of 0.5-3.0 h, CA alone, read-out: Papp AP to BL): 0.54 ± 0.05 ×10⁻⁶ cm/s
Papp A→B at 50 μM (Caco-2, CA 50 μM, Average of 0.5-3.0 h, read-out: Papp AP-BL): 0.53 ± 0.02 ×10⁻⁶ cm/s
Papp B→A at 0.5 h, 75 μM (Caco-2, CA 75 μM, 0.5 h): 0.91 ± 0.02 ×10⁻⁶ cm/s
efflux ratio at 0.5 h, 75 μM (Caco-2, CA 75 μM, 0.5 h): 0.88
Papp A→B at 0.5 h, 75 μM (Caco-2, CA 75 μM, 0.5 h, CA alone, read-out: Papp AP to BL): 1.03 ± 0.01 ×10⁻⁶ cm/s
Papp A→B at 0.5 h, 75 μM (Caco-2, CA 75 μM, 0.5 h, read-out: Papp AP-BL): 1.03 ± 0.01 ×10⁻⁶ cm/s
Papp B→A at 1.5 h, 75 μM (Caco-2, CA 75 μM, 1.5 h): 0.79 ± 0.07 ×10⁻⁶ cm/s
efflux ratio at 1.5 h, 75 μM (Caco-2, CA 75 μM, 1.5 h): 0.95
Papp A→B at 1.5 h, 75 μM (Caco-2, CA 75 μM, 1.5 h, CA alone, read-out: Papp AP to BL): 0.83 ± 0.01 ×10⁻⁶ cm/s
Papp A→B at 1.5 h, 75 μM (Caco-2, CA 75 μM, 1.5 h, read-out: Papp AP-BL): 0.83 ± 0.01 ×10⁻⁶ cm/s
Papp B→A at 2 h, 75 μM (Caco-2, CA 75 μM, 2.0 h): 0.62 ± 0.01 ×10⁻⁶ cm/s
efflux ratio at 2 h, 75 μM (Caco-2, CA 75 μM, 2.0 h): 0.33
Papp A→B at 2 h, 75 μM (Caco-2, CA 75 μM, 2.0 h, CA alone, read-out: Papp AP to BL): 1.84 ± 0.1 ×10⁻⁶ cm/s
Papp A→B at 2 h, 75 μM (Caco-2, CA 75 μM, 2.0 h, read-out: Papp AP-BL): 1.84 ± 0.1 ×10⁻⁶ cm/s
Papp B→A at 2.5 h, 75 μM (Caco-2, CA 75 μM, 2.5 h): 0.41 ± 0.03 ×10⁻⁶ cm/s
efflux ratio at 2.5 h, 75 μM (Caco-2, CA 75 μM, 2.5 h): 0.49
Papp A→B at 2.5 h, 75 μM (Caco-2, CA 75 μM, 2.5 h, CA alone, read-out: Papp AP to BL): 0.83 ± 0.01 ×10⁻⁶ cm/s
Papp A→B at 2.5 h, 75 μM (Caco-2, CA 75 μM, 2.5 h, read-out: Papp AP-BL): 0.83 ± 0.01 ×10⁻⁶ cm/s
Papp B→A at 3 h, 75 μM (Caco-2, CA 75 μM, 3.0 h): 0.38 ± 0.03 ×10⁻⁶ cm/s
efflux ratio at 3 h, 75 μM (Caco-2, CA 75 μM, 3.0 h): 0.61
Papp A→B at 3 h, 75 μM (Caco-2, CA 75 μM, 3.0 h, CA alone, read-out: Papp AP to BL): 0.62 ± 0.01 ×10⁻⁶ cm/s
